How the values were obtained:
[1] = test system: E. coli (ATCC 25922) standard strain; assay: Antibacterial property of polymerizable antibacterial monomer against E. coli (absorbance at 600 nm); assay type: cell-based, Escherichia coli; conditions: 18 hours at 35° C.; for Optical density: diluted to 1/5, 600 nm
Protocol: (§1) The monomer was put in a 50 ml conical tube according to the content of Table 1 below, and then 25 ml of a nutrient broth (Becton Dickinson) solution, to which 3000±300 CFU/ml of E. coli (ATCC 25922) standard strain was inoculated, was injected. After culturing for 18 hours in a shaking incubator (Vision Scientific, VS-37SIF) at 35° C., the culture solution was diluted to ⅕ concentration using 1× PBS (Gibco). The absorbance of the diluted solution was measured at a wavelength of 600 nm using a UV-Vis spectrophotometer. At this time, the absorbance measured after culturing the nutrient broth solution to which the bacteria was inoculated without the addition of the monomer was compared to the absorbance of the sample to which the monomer was added, and the degree of growth of the bacteria was examined. The bacterial growth-inhibitory rate was calculated according to the following Equation 1, and the results are shown in Table 1 below. Bacterial growth-inhibitory rate(%)=[(ODReference−ODsample)/ODReference]*100 [Equation 1] in Equation, ODReference represents absorbance of the culture medium of Comparative Experimental Example 1-1 without the antibacterial material, and ODsample represents absorbance of the culture medium with the antibacterial material.

[2] = test system: Proteus mirabilis (P. mirabilis, ATCC 29906) standard strain; assay: Antibacterial property of polymerizable antibacterial monomer against Proteus mirabilis (absorbance at 600 nm); assay type: cell-based; conditions: 18 hours at 35° C.; for Optical density: diluted to 1/5, 600 nm
Protocol: as §1, with “To examine the antibacterial properties” for “Bacterial growth-inhibitory rate(%)=[(ODReference−ODsample)/ODReference]*100 [Equation 1] in Equation, ODReference represents absorbance”, “monomer 2-(tert-butylamino)ethyl methacrylate included in Examples and the monomer 2-(dimethylamino)ethyl methacrylate against Proteus mirabilis, the bacterial growth-inhibitory rate (%) against Proteus mirabilis (P. mirabilis) was calculated in the same manner as in the antibacterial property evaluation for E. coli, except that a nutrient broth solution, to which 3000±300 CFU/ml of Proteus mirabilis (P. mirabilis, ATCC 29906) standard strain was inoculated instead of E. coli (ATCC 25922), was used. In calculating the bacteriostatic reduction rate using Equation 1, CReference represents CFU of bacteria after culturing with the monomer” for “culture medium”, “2-1” for “1-1”, “antibacterial” for “antibacterial material, and ODsample represents absorbance of the culture medium with the antibacterial”

[3] = 0.03 g monomer in 25 ml nutrient broth
[4] = 0.05 g monomer in 25 ml nutrient broth
[5] = 0.07 g monomer in 25 ml nutrient broth

Compound | Bacterial growth-inhibitory rate (%) [1, 3] [%] | Optical density [1, 3] | Bacterial growth-inhibitory rate (%) [1, 4] [%] | Optical density [1, 4] | Bacterial growth-inhibitory rate (%) [1, 5] [%] | Optical density [1, 5] | Bacterial growth-inhibitory rate (%) [2, 3] [%] | Optical density [2, 3] | Bacterial growth-inhibitory rate (%) [2, 4] [%] | Optical density [2, 4] | Bacterial growth-inhibitory rate (%) [2, 5] [%] | Optical density [2, 5]
C=C(C)C(=O)OCCNC(C)(C)C [2-(tert-butylamino)ethyl methacrylate] | 5.61 | 0.185 | 64.29 | 0.070 | 95.41 | 0.009 | 19.10 | 0.144 | 43.82 | 0.100 | 94.94 | 0.009
C=C(C)C(=O)OCCN(C)C [2-(dimethylamino)ethyl methacrylate] | 0.00 | 0.196 | 3.67 | 0.189 | 23.98 | 0.149 | 3.37 | 0.172 | 20.22 | 0.142 | 67.98 | 0.057

Source: patent US20230405552A1, “Super Absorbent Polymer and Preparation Method Thereof” (LG Chem, Ltd., priority 2021, published 2023)
